Measurements as given in PubChem BioAssay AID328 (DTP/NCI, 2004).
Several values for one entry are separate records, joined by “and”; a condition that tells them apart may be missing. Equal values may be shown once. Toxic doses and inconclusive results are not listed.

Test system: BDF1 mice, P388 leukemia ip, median survival T/C
Experiment: NCI In Vivo Anticancer Drug Screen. Data for tumor model P388 Leukemia (intraperitoneal) in B6D2F1 (BDF1) mice
Settings: endpoint: median survival time, higher = longer survival
Method in brief: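 Each value expresses how treatment altered survival: treated-mouse outcome over vehicle-mouse outcome, both groups bearing the transplanted tumour.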

[1] = dose: 100.0 mg/kg/injection, schedule: Q04DX003 (ip), vehicle: saline with Tween-80
[2] = dose: 200.0 mg/kg/injection, schedule: Q04DX003 (ip), vehicle: saline with Tween-80
[3] = dose: 100.0 mg/kg/injection, schedule: Q01DX009 (ip), vehicle: saline with Tween-80
[4] = dose: 100.0 mg/kg/injection, schedule: Q04DX003 (ip), vehicle: Klucel (hydroxypropylcellulose) (HPC)
[5] = dose: 50.0 mg/kg/injection, schedule: Q04DX003 (ip), vehicle: Klucel (hydroxypropylcellulose) (HPC)
[6] = dose: 200.0 mg/kg/injection, schedule: Q04DX003 (ip), vehicle: Klucel (hydroxypropylcellulose) (HPC)
[7] = dose: 200.0 mg/kg/injection, schedule: Q04DX003 (ip), vehicle: saline

C/C(=C/c1cc2c(cc1Br)OCO2)[N+](=O)[O-] was tested, and the T/C (dose: 25.0 mg/kg/injection, schedule: Q04DX003 (ip), vehicle: saline with Tween-80) was 98 % of control, the T/C (dose: 50.0 mg/kg/injection, schedule: Q04DX003 (ip), vehicle: saline with Tween-80) was 98 % of control and the T/C [1] was 100 % of control and 106 % of control. The T/C [2] was 115 % of control.
With Cn1cnnc1N the T/C (dose: 100.0 mg/kg/injection, schedule: Q01DX001 (ip), vehicle: saline) was 100 % of control, the T/C (dose: 200.0 mg/kg/injection, schedule: Q01DX001 (ip), vehicle: saline) was 95 % of control and the T/C (dose: 400.0 mg/kg/injection, schedule: Q01DX001 (ip), vehicle: saline) was 104 % of control.
With COCc1cnc2nc(N)nc(N)c2n1 the T/C (dose: 3.13 mg/kg/injection, schedule: Q01DX009 (ip), vehicle: other) was 116 % of control.
In the case of Cc1ccccc1P(=O)(c1ccccc1C)c1ccccc1C, the T/C (dose: 25.0 mg/kg/injection, schedule: Q01DX009 (ip), vehicle: saline with Tween-80) is reported as 90 % of control, the T/C (dose: 50.0 mg/kg/injection, schedule: Q01DX009 (ip), vehicle: saline with Tween-80) is reported as 94 % of control and the T/C [3] is reported as 94 % of control.
CC1OC(Oc2c(-c3ccc(O)c(O)c3)oc3cc(O)cc(O)c3c2=O)C(O)C(O)C1O (stereo unspecified) was tested, and the T/C [3] was 109 % of control, the T/C [1] was 113 % of control and the T/C (dose: 200.0 mg/kg/injection, schedule: Q01DX009 (ip), vehicle: saline with Tween-80) was 104 % of control. The T/C [2] was 109 % of control, the T/C (dose: 264.0 mg/kg/injection, schedule: Q04DX003 (ip), vehicle: saline with Tween-80) was 104 % of control and the T/C (dose: 400.0 mg/kg/injection, schedule: Q01DX009 (ip), vehicle: saline with Tween-80) was 118 % of control. The T/C (dose: 400.0 mg/kg/injection, schedule: Q04DX003 (ip), vehicle: saline with Tween-80) was 104 % of control and the T/C (dose: 600.0 mg/kg/injection, schedule: Q04DX003 (ip), vehicle: saline with Tween-80) was 104 % of control.
CCOC(=O)c1cc(OC(C)=O)c2c(ccc3ccccc32)c1C was tested, and the T/C [4] was 91 % of control and the T/C (dose: 400.0 mg/kg/injection, schedule: Q04DX003 (ip), vehicle: Klucel (hydroxypropylcellulose) (HPC)) was 91 % of control.
For CCN(CC)N=Nc1ccccc1-c1nc(N)c2ccccc2n1, the T/C [5] was 157 % of control, the T/C [4] was 161 % of control and the T/C [6] was 180 % of control.
CNc1cc(C(C)C)ccc1C was tested, and the T/C (dose: 32.5 mg/kg/injection, schedule: Q01DX009 (sc), vehicle: olive oil, sesame oil, peanut oil) was 104 % of control, the T/C (dose: 65.0 mg/kg/injection, schedule: Q01DX009 (sc), vehicle: olive oil, sesame oil, peanut oil) was 104 % of control and the T/C (dose: 100.0 mg/kg/injection, schedule: Q04DX003 (sc), vehicle: olive oil, sesame oil, peanut oil) was 104 % of control. The T/C (dose: 130.0 mg/kg/injection, schedule: Q01DX009 (sc), vehicle: olive oil, sesame oil, peanut oil) was 100 % of control, the T/C (dose: 200.0 mg/kg/injection, schedule: Q04DX003 (sc), vehicle: olive oil, sesame oil, peanut oil) was 109 % of control and the T/C (dose: 400.0 mg/kg/injection, schedule: Q04DX003 (sc), vehicle: olive oil, sesame oil, peanut oil) was 118 % of control.
For CC(C)C1C(=O)N2CCCC2C2(O)OC(NC(=O)C3C=C4c5cccc6[nH]cc(c56)CC4N(C)C3)(C(C)C)C(=O)N12 (stereo unspecified), the T/C (dose: 12.5 mg/kg/injection, schedule: Q01DX009 (ip), vehicle: Klucel (hydroxypropylcellulose) (HPC)) was 109 % of control, the T/C (dose: 25.0 mg/kg/injection, schedule: Q01DX009 (ip), vehicle: saline) was 115 % of control and the T/C (dose: 25.0 mg/kg/injection, schedule: Q04DX003 (ip), vehicle: Klucel (hydroxypropylcellulose) (HPC)) was 91 % of control. The T/C (dose: 50.0 mg/kg/injection, schedule: Q01DX009 (ip), vehicle: Klucel (hydroxypropylcellulose) (HPC)) was 109 % of control, the T/C (dose: 50.0 mg/kg/injection, schedule: Q01DX009 (ip), vehicle: saline) was 110 % of control and the T/C [5] was 91 % of control. For the same molecule, the T/C (dose: 100.0 mg/kg/injection, schedule: Q01DX009 (ip), vehicle: Klucel (hydroxypropylcellulose) (HPC)) was 118 % of control, the T/C (dose: 100.0 mg/kg/injection, schedule: Q01DX009 (ip), vehicle: saline) was 109 % of control and 120 % of control and the T/C [4] was 104 % of control. For the same molecule, the T/C [6] was 100 % of control, the T/C [7] was 120 % of control and the T/C (dose: 400.0 mg/kg/injection, schedule: Q04DX003 (ip), vehicle: saline) was 100 % of control.
For NS(=O)(=O)c1c([N+](=O)[O-])ncn1C1OC(COC(=O)c2ccccc2)C(OC(=O)c2ccccc2)C1OC(=O)c1ccccc1 (stereo unspecified), the T/C (dose: 25.0 mg/kg/injection, schedule: Q04DX003 (ip), vehicle: saline) was 105 % of control, the T/C (dose: 50.0 mg/kg/injection, schedule: Q04DX003 (ip), vehicle: saline) was 100 % of control and the T/C (dose: 100.0 mg/kg/injection, schedule: Q04DX003 (ip), vehicle: saline) was 121 % of control. For the same molecule, the T/C [7] was 124 % of control.
